For assay [1], the system named is HepG2-A16-CD81EGFP cells. Kind of assay: cells. To be noted: Homo sapiens; for IC50: HepG2, read-out: Tox IC50; for inhibition at 50 µM: HepG2, read-out: Tox max inhibition (%) @ 50 uM.
The subject of assay [2] is Plasmodium berghei (Pb-Luc) exoerythrocytic-stage parasites. Briefly: microbe, parasite or virus in culture.
[3] abbreviates: HepG2, read-out: HepG2 Tox% @ 50 uM rep1.
Where [4] appears, read: read-out: Inhibition% @ 50 uM rep1.
[5] abbreviates: read-out: Inhibition% @ 50 uM rep2.
The mark [6] stands for this setting: read-out: PbLuc IC50, dose response, 1/3 dilutions, max conc. 10 or 50 uM, unit inferred.
Where [7] appears, read: read-out: PbLuc max inhibition (%) @ 50 uM.
Where [8] appears, read: HepG2, read-out: HepG2 Tox% @ 50 uM rep2.

The text below walks through data of PMC4890880 (ACS infectious diseases, 2016).

Like-named read-outs stand apart in the source and are kept apart here.

For the molecule `Cc1cc(=O)oc2c1ccc1oc(C(=O)c3ccccc3)c(C)c12` [MMV006753], the cytotoxicity at 50 µM in assay [1] (setting [3]) stood at 37%. Besides, the figures for the inhibition at 50 µM in assay [2] (setting [4]) and in assay [2] (setting [5]) were 102% and 103%, respectively.

Take `CC(C)CCNCC(O)Cn1c2ccccc2c2ccccc21` (stereo not drawn) [MMV006787]: the cytotoxicity at 50 µM in assay [1] (setting [3]) was 98%. Moreover, the IC50 in assay [1] was determined as 30.3 µM; in assay [2] (setting [6]) it was 9.6 µM. Also, the inhibition (commonly the drop in the measured response relative to a control, in per cent) at 50 µM came to 97% in assay [1], 103% in assay [2] (setting [4]), 103% in assay [2] (setting [5]) and 99% in assay [2] (setting [7]).

As for `c1ccc2cc3c(Nc4ccc(N5CCOCC5)cc4)ccnc3cc2c1` [MMV006861], the cytotoxicity at 50 µM in assay [1] (setting [3]) was 78%; in assay [1] (setting [8]), 99%. In addition, the values for the inhibition at 50 µM in assay [2] (setting [4]) and in assay [2] (setting [5]) were 103% and 105%, respectively.

`Cc1ccc2c(C)nc(Nc3nc(C)cc(-c4ccccc4)n3)nc2c1` [MMV007041]: the cytotoxicity at 50 µM in assay [1] (setting [3]) amounted to 37%. The inhibition at 50 µM in assay [2] (setting [4]) and in assay [2] (setting [5]) was 103% each time.

Regarding `CCOc1ccc(CN2CCN(CC(O)COc3ccc(OCC(O)CN4CCN(Cc5ccc(OCC)cc5)CC4)cc3)CC2)cc1` (stereo not drawn) [MMV007092], the cytotoxicity at 50 µM in assay [1] (setting [3]) turned out to be 98%. Further, the results for the IC50 in assay [1] and in assay [2] (setting [6]) were 41.6 µM and 12.4 µM, respectively. For the same molecule, the inhibition at 50 µM worked out at 65% in assay [1], 103% in assay [2] (setting [4]), 104% in assay [2] (setting [5]) and 99% in assay [2] (setting [7]).

With `c1ccc(C2=Nc3ccccc3N=C(c3ccccc3)c3ccccc32)cc1` [MMV007113], the cytotoxicity at 50 µM in assay [1] (setting [3]) is 22%. In addition, the IC50 is above 50 µM in assay [1] and above 50 µM in assay [2] (read-out: PbLuc IC50, dose response, unit inferred). For the same molecule, the inhibition at 50 µM in assay [1] stood at 15%; in assay [2] (setting [4]), 94%; in assay [2] (setting [5]) it was 95%; in assay [2] (setting [7]), 40%.

In the case of `Cc1cc(Nc2ccc(OCc3ccccc3)cc2)nc2cc(O)ccc12` [MMV007181], the cytotoxicity at 50 µM in assay [1] (setting [3]) is 98%. The inhibition at 50 µM in assay [2] (setting [4]) and in assay [2] (setting [5]) was 103% in each case.

Consider `COc1cc(-c2nc(-c3ccc(Sc4ccccc4)cc3)c(-c3ccccc3)[nH]2)cc(OC)c1O` [MMV007273], for which, in assay [1] (setting [3]), the cytotoxicity at 50 µM amounted to 89%. The IC50 is 34.1 µM in assay [1] and 7.67 µM in assay [2] (setting [6]). For the same molecule, the inhibition at 50 µM in assay [1] is 82%; in assay [2] (setting [4]), 101%; in assay [2] (setting [5]) it was 102%; in assay [2] (setting [7]) it was 100%.

In the case of `Cc1ccc(F)cc1NC(=O)c1cc(Cl)ccc1Nc1ccccc1` [MMV007275], in assay [1] (setting [3]), the cytotoxicity at 50 µM was -8%. The inhibition at 50 µM in assay [2] (setting [4]) came out at 75%; in assay [2] (setting [5]) it was 69%.

As to `O=C(NCc1ccco1)C1CCN(S(=O)(=O)c2ccc(Br)cc2)CC1` [MMV007430], the results for the cytotoxicity at 50 µM in assay [1] (setting [3]) and in assay [1] (setting [8]) were 28% and 34%, respectively. Further, the results for the inhibition at 50 µM in assay [2] (setting [4]) and in assay [2] (setting [5]) were 103% and 105%, respectively.

As for `Cc1ccc(CSCc2ccc(C(=O)NC3CC3)o2)cc1` [MMV007571], the cytotoxicity at 50 µM was determined as 66% in assay [1] (setting [3]) and 74% in assay [1] (setting [8]). The inhibition at 50 µM in assay [2] (setting [4]) and in assay [2] (setting [5]) was 103% each time.

As for `COc1ccc(C(=O)C(CCC(CNC(C)(C)C)C(=O)c2ccc(OC)cc2)CNC(C)(C)C)cc1` (stereo not drawn) [MMV007591], in assay [1] (setting [3]), the cytotoxicity at 50 µM amounted to 101%. For the same molecule, the results for the IC50 in assay [1] and in assay [2] (setting [6]) were 25.3 µM and 7.2 µM, respectively. Also, the inhibition at 50 µM was found to be 92% in assay [1], 103% in assay [2] (setting [4]), 104% in assay [2] (setting [5]) and 99% in assay [2] (setting [7]).

For `CC(=O)NCCc1nc2ccccc2n1Cc1ccc(C(C)C)cc1` [MMV007617], the cytotoxicity at 50 µM is 81% in assay [1] (setting [3]) and 80% in assay [1] (setting [8]). Moreover, the values for the inhibition at 50 µM in assay [2] (setting [4]) and in assay [2] (setting [5]) were 104% and 106%, respectively.

`Cc1ccc(C)c(-c2csc(Nc3ccc(C)c(C)c3)n2)c1` [MMV007654]: the cytotoxicity at 50 µM in assay [1] (setting [3]) is -26%. Further, the values for the inhibition at 50 µM in assay [2] (setting [4]) and in assay [2] (setting [5]) were -107% and -33%, respectively.

`COc1ccc2c(c1)OC(O)(C(F)(F)C(F)(F)F)CC2=O` (stereo not drawn) [MMV007839]: the cytotoxicity at 50 µM in assay [1] (setting [3]) and in assay [1] (setting [8]) was 96% in each case. In addition, the inhibition at 50 µM in assay [2] (setting [4]) is 102%; in assay [2] (setting [5]) it was 98%.

As to `Cc1ccc(Nc2nc(-c3ccccn3)cs2)cc1` [MMV007907], the cytotoxicity at 50 µM in assay [1] (setting [3]) was determined as 93%; in assay [1] (setting [8]), 96%. Moreover, the figures for the inhibition at 50 µM in assay [2] (setting [4]) and in assay [2] (setting [5]) were 103% and 106%, respectively.

As to `O=C(O)C1Cc2c([nH]c3ccccc23)C(c2ccc(Cl)cc2Cl)N1` (stereo not drawn) [MMV008138], the cytotoxicity at 50 µM was found to be 49% in assay [1] (setting [3]) and 53% in assay [1] (setting [8]). Moreover, the values for the inhibition at 50 µM in assay [2] (setting [4]) and in assay [2] (setting [5]) were 88% and 91%, respectively.

Take `COC(=O)c1ccc(C2C3=C(O)CC(c4ccc(F)cc4)CC3=Nc3ccccc3N2C(=O)c2ccccc2)cc1` (stereo not drawn) [MMV011438]: the cytotoxicity at 50 µM in assay [1] (setting [3]) was -12%. The IC50 in assay [1] is above 50 µM; in assay [2] (setting [6]), 3.16 µM. In addition, the inhibition at 50 µM was found to be 8% in assay [1], 98% in assay [2] (setting [4]), 96% in assay [2] (setting [5]) and 97% in assay [2] (setting [7]).

Take `Cc1ccc(Nc2nc(N)c3ccccc3n2)cc1Cl` [MMV011522]: in assay [1] (setting [3]), the cytotoxicity at 50 µM stood at 97%. Besides, the values for the inhibition at 50 µM in assay [2] (setting [4]) and in assay [2] (setting [5]) were 100% and 99%, respectively.

`Nc1ccc(-c2nc3cc(Oc4ccc(Oc5ccc6[nH]c(-c7ccc(N)cc7)nc6c5)cc4)ccc3[nH]2)cc1` [MMV011895]: the cytotoxicity at 50 µM in assay [1] (setting [3]) turned out to be 97%. Also, the results for the IC50 in assay [1] and in assay [2] (setting [6]) were 12.8 µM and 6.98 µM, respectively. Also, the inhibition at 50 µM amounted to 100% in assay [1], 98% in assay [2] (setting [4]), 99% in assay [2] (setting [5]) and 99% in assay [2] (setting [7]).

As for `O=C(Nc1ccc(-c2nc3cc4ccccc4cc3[nH]2)cc1)c1cccc(Br)c1` [MMV019241], the cytotoxicity at 50 µM in assay [1] (setting [3]) worked out at 41%. The inhibition at 50 µM in assay [2] (setting [4]) and in assay [2] (setting [5]) was 91% each time.

Consider `Cc1sc2ncnc(Sc3nc4ccccc4[nH]3)c2c1C` [MMV019266], for which the cytotoxicity at 50 µM in assay [1] (setting [3]) amounted to 31%; in assay [1] (setting [8]), 47%. Also, the values for the IC50 in assay [1] and in assay [2] (setting [6]) were above 50 µM and 0.53 µM, respectively. In addition, the inhibition at 50 µM in assay [1] amounted to 28%; in assay [2] (setting [4]), 98%; in assay [2] (setting [5]), 102%; in assay [2] (setting [7]) it was 101%.

Take `c1ccc2c(NCCCCCCNc3c4c(nc5ccccc35)CCCC4)c3c(nc2c1)CCCC3` [MMV019555]: the cytotoxicity at 50 µM in assay [1] (setting [3]) was found to be 100%. In addition, the IC50 in assay [1] is 14.5 µM; in assay [2] (read-out: PbLuc IC50), 1.39 µM. Besides, the inhibition at 50 µM was 101% in assay [1], 104% in assay [2] (setting [4]), 104% in assay [2] (setting [5]) and 100% in assay [2] (setting [7]).

As for `COc1ccc(C2NCCc3c2[nH]c2ccccc32)cc1CN1CCN(c2ccc(F)cc2)CC1` (stereo not drawn) [MMV019690], the cytotoxicity at 50 µM in assay [1] (setting [3]) stood at 101%. The IC50 came to 10.8 µM in assay [1] and 6.28 µM in assay [2] (setting [6]). In addition, the inhibition at 50 µM is 100% in assay [1], 103% in assay [2] (setting [4]), 103% in assay [2] (setting [5]) and 99% in assay [2] (setting [7]).
